Source: patent US4370330A, “Method of enhancing circulation with piperazines” (Merz & Company, priority 1979, dated 1983)
Structures can show the parent of a compound that is named as a salt. Where two headings read alike, the source gives them in different places.

Tests used:
[1] = tested on: cerebrovascular resistance; assay: cerebrovascular resistance on the rabbit (Hutten and Vaupel), decrease in vascular resistance after arterial application; format: in vivo; conditions: for inhibition in vivo at 1 %: Oryctolagus cuniculus, read-out: ΔR % (relative decrease in vascular resistance)
Procedure: The therapeutic effect is expressed in terms of decrease in vascular resistance.
For this purpose 0.1 ml of a 1% solution of the test substance, i.e., according to the invention, was administered to the rabbit by arterial application. The decrease in vascular resistance (R) and the relative decrease in vascular resistance (ΔR%) were recorded and expressed in mm Hg min/l or in the valid S.I. unit k Pa min/ml, i.e., absolute decrease of resistance x time.
The activity of this compound was tested by means of the aforementioned method.

in vivo [2] = assay: in vivo
Text: The calculation of the therapeutic indices was based on the

[3] = acute toxicity after oral application, LD50; conditions: in vivo
Text: The therapeutic range of the substances according to the invention can again be described as excellent, since the LD50 values lie in a favorable range, as is shown by the results of acute toxicity tests on the mouse after oral application.

[4] = Table 2; mean effective dose
in vivo [5] = assay: in vivo; remark: listed apart in the source
[6] = Table 1, rabbit, 0.1 ml of a 1% solution, arterial application
[7] = Table 3, mouse oral, 24 h, read-out: Acute toxicities LD50, 24 h
[8] = Table 3, mouse oral, 14 days, read-out: Acute toxicities LD50, 14 days
[9] = Table 4, rabbit, 0.1 ml of a 1% solution, arterial application
[10] = mouse, po, read-out: Acute toxicity LD50, 24 h
[11] = mouse, po, read-out: Acute toxicity LD50, 14 days

Compound | inhibition in vivo at 1 % [1, 6] | Absolute decrease of vascular resistance R [1, 6] | LD50 (in vivo [2]; iv) | LD50 at 24 h [3, 7] | LD50 at 336 h [3, 8] | ED50 [4] | selectivity ratio (in vivo [5]; iv) | also measured
CCOc1ccccc1N1CCN(Cc2cc(OC)c(OC)c(OC)c2)CC1.Cl.Cl [o. Ethoxy-, N-(3,4,5-trimethoxy-benzyl)-N'-(2-ethoxyphenyl)-piperazine dihydrochloride] | 20.4% | 2,85 mm Hg min/l | 900 mg/kg | 411 mg/kg | 266 mg/kg | 0,45 mg/kg | 1990 | –
COc1cc(CN2CCN(c3ccc(C)cc3)CC2)cc(OC)c1OC [p. Methyl-, hydrochloride] | 23% | 3,3 mm Hg min/l | 720 mg/kg | 459 mg/kg | 312 mg/kg | 0,44 mg/kg | 1630 | –
COc1cccc(N2CCN(Cc3cc(OC)c(OC)c(OC)c3)CC2)c1.Cl [m. Methoxy-, N-(3,4,5-trimethoxy-benzyl)-N'-(3-methoxyphenyl)-piperazine hydrochloride] | 28.5% | 3,0 mm Hg min/l | 850 mg/kg | 411 mg/kg | 285 mg/kg | 0,42 mg/kg | 2010 | –
COc1cc(CN2CCN(c3cc(OC)c(OC)c(OC)c3)CC2)cc(OC)c1OC [Example 4] | – | – | – | – | – | – | – | inhibition in vivo at 1 % [1, 9]: 21.5%; LD50 (in vivo [2]): 350 mg/kg; LD50 at 24 h [3, 10]: 348 mg/kg; LD50 at 336 h [3, 11]: 348 mg/kg; selectivity ratio (in vivo [5]): 7000
CCc1ccccc1N1CCN(Cc2cc(OC)c(OC)c(OC)c2)CC1.Cl.Cl [o. Ethyl-, N-(3,4,5-trimethoxy-benzyl)-N'-(2-ethylphenyl)-piperazine dihydrochloride] | 21.7% | 3,0 mm Hg min/l | 900 mg/kg | 456 mg/kg | 311 mg/kg | 0,40 mg/kg | 2240 | –
COc1cc(CN2CCN(c3ccccc3[N+](=O)[O-])CC2)cc(OC)c1OC.Cl [o. Nitro-, N-(3,4,5-trimethoxy-benzyl)-N'-(2-nitrophenyl)-piperazine hydrochloride] | 20.6% | 3,1 mm Hg min/l | 650 mg/kg | 274 mg/kg | 201 mg/kg | 0,50 mg/kg | 1300 | –
COc1cc(CN2CCN(c3ccccc3)CC2)cc(OC)c1OC.Cl [Example 21, N-(3,4,5-trimethoxy-benzyl)-N'-phenyl-piperazine hydrochloride] | – | – | – | – | – | – | – | Absolute decrease of vascular resistance R ([1]; Hutten and Vaupel rabbit test): 3.0 mm. Hg. min/l; circulation stimulant activity (in words) ([1]; Hutten and Vaupel rabbit test): circulation stimulant; decrease of vascular resistance (ΔR %) ([1]; Hutten and Vaupel rabbit test): 23.2%; LD50 at 24 h ([3]; mouse, oral, 24 hours, read-out: oral acute toxicity (LD50) after 24 hours): 320 mg/kg; LD50 at 336 h ([3]; mouse, oral, fourteen days, read-out: oral acute toxicity (LD50) after fourteen days): 265 mg/kg
COc1cc(CN2CCN(c3ccccc3C)CC2)cc(OC)c1OC [o. Methyl-, N-(3,4,5-trimethoxybenzyl)-N'-(2-methylphenyl)-piperazine] | 24.5% | 3,3 mm Hg min/l | 700 mg/kg | 457 mg/kg | 311 mg/kg | 0,48 mg/kg | 1450 | –
COc1cc(CN2CCN(c3ccc(C)c(C)c3)CC2)cc(OC)c1OC [Example 1] | – | – | – | – | – | – | – | inhibition in vivo at 1 % [1, 9]: 24.3%; LD50 (in vivo [2]): 260 mg/kg; LD50 at 24 h [3, 10]: 348 mg/kg; LD50 at 336 h [3, 11]: 263 mg/kg; selectivity ratio (in vivo [5]): 13000
COc1ccccc1N1CCN(Cc2cc(OC)c(OC)c(OC)c2)CC1.Cl.Cl [o. Methoxy-, N-(3,4,5-trimethoxy-benzyl)-N'-(2-methoxyphenyl)-piperazine dihydrochloride] | 22.2% | 2,94 mm Hg min/l | 1150 mg/kg | – | – | 0,42 mg/kg | 2750 | –
COc1cc(CN2CCN(c3c(C)cccc3C)CC2)cc(OC)c1OC [Example 6] | – | – | – | – | – | – | – | inhibition in vivo at 1 % [1, 9]: 23%; LD50 (in vivo [2]): 265 mg/kg; LD50 at 24 h [3, 10]: 348 mg/kg; LD50 at 336 h [3, 11]: 265 mg/kg; selectivity ratio (in vivo [5]): 3800
COc1cc(CN2CCN(c3ccc4c(c3)OCO4)CC2)cc(OC)c1OC [Example 3] | – | – | – | – | – | – | – | inhibition in vivo at 1 % [1, 9]: 22%; LD50 (in vivo [2]): 297 mg/kg; LD50 at 24 h [3, 10]: 312 mg/kg; LD50 at 336 h [3, 11]: 296 mg/kg; selectivity ratio (in vivo [5]): 2700
COc1cc(CN2CCN(c3ccc(F)cc3)CC2)cc(OC)c1OC.Cl [p. Fluoro-, N-(3,4,5-trimethoxy-benzyl)-N'-(4-fluorophenyl)-piperazine hydrochloride] | 26.4% | 4,6 mm Hg min/l | 580 mg/kg | 350 mg/kg | 275 mg/kg | 0,37 mg/kg | 1570 | –
COc1cc(CN2CCN(c3ccc(Cl)c(C(F)(F)F)c3)CC2)cc(OC)c1OC [Example 2] | – | – | – | – | – | – | – | inhibition in vivo at 1 % [1, 9]: 26.3%; LD50 (in vivo [2]): 283 mg/kg; LD50 at 24 h [3, 10]: 328 mg/kg; LD50 at 336 h [3, 11]: 283 mg/kg; selectivity ratio (in vivo [5]): 3150
C(=C\c1ccccc1)/CN1CCN(C(c2ccccc2)c2ccccc2)CC1 [Cinnarizine, reference compound] | 19.3% | 2,9 mm Hg min/l | – | – | – | – | – | Absolute decrease in vascular resistance R [1, 9]: 2.9 mm Hg min/l
COc1cc(CN2CCN(c3ccccc3Cl)CC2)cc(OC)c1OC.Cl.Cl [o. Chloro-, N-(3,4,5-trimethoxy-benzyl)-N'-(2-chlorophenyl)-piperazine dihydrochloride] | 27.9% | 3,0 mm Hg min/l | 810 mg/kg | 295 mg/kg | 255 mg/kg | 0,38 mg/kg | 2130 | –
COc1cc(CN2CCN(c3ccccc3F)CC2)cc(OC)c1OC.Cl [o. Fluoro-, N-(3,4,5-trimethoxy-benzyl)-N'-(2-fluorophenyl)-piperazine hydrochloride] | 23% | 3,0 mm Hg min/l | 920 mg/kg | – | – | 0,40 mg/kg | 2280 | –
COc1cc(CN2CCN(c3cccc(C)c3)CC2)cc(OC)c1OC.Cl [m. Methyl-, N-(3,4,5-trimethoxy-benzyl)-N'-(3-methylphenyl)-piperazine hydrochloride] | 22% | 3,2 mm Hg min/l | 700 mg/kg | 452 mg/kg | 310 mg/kg | 0,46 mg/kg | 1520 | –
COc1cc(CN2CCN(c3cc(C(F)(F)F)cc(C(F)(F)F)c3)CC2)cc(OC)c1OC [Example 5] | – | – | – | – | – | – | – | inhibition in vivo at 1 % [1, 9]: 20.6%; LD50 (in vivo [2]): 280 mg/kg; LD50 at 24 h [3, 10]: 300 mg/kg; LD50 at 336 h [3, 11]: 280 mg/kg; selectivity ratio (in vivo [5]): 5600
COc1cc(CN2CCN(c3ccc(O)cc3)CC2)cc(OC)c1OC.Cl [p. Hydroxy-, N-(3,4,5-trimethoxy-benzyl)-N'-(4-hydroxyphenyl)-piperazine hydrochloride] | 19.5% | 2,8 mm Hg min/l | 1260 mg/kg | 306 mg/kg | 245 mg/kg | 0,45 mg/kg | 2800 | –
COc1ccc(N2CCN(Cc3cc(OC)c(OC)c(OC)c3)CC2)cc1.Cl.Cl [p. Methoxy-, N-(3,4,5-trimethoxy-benzyl)-N'-(4-methoxyphenyl)-piperazine dihydrochloride] | – | 3,90 mm Hg min/l | 910 mg/kg | – | – | 0,30 mg/kg | 3050 | inhibition in vivo at 1 % [1]: 27.8%
